Source: patent publication US11566007B2, “Ras inhibitors” (Revolution Medicines, Inc., priority 2019, dated 2023)

Experiments:
[1] = test system: NCI-H358 cells (K-Ras G12C); assay: Potency assay: pERK in NCI-H358 cells; assay type: cell-based, human; conditions: Homo sapiens, NCI-H358; H358 KRAS G12C; read-out: pERK EC50
Summary of the method: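 4 h cpd, 37 °C; 10-pt 3-fold series, 10 mM DMSO top stock, duplicates. Readout pERK: AlphaLISA SureFire Ultra or In-Cell Western (IR-800CW secondary, DRAQ5 DNA stain). IC50, 4-PL fit vs log conc.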

[2] = biological target: K-Ras G13C (Homo sapiens (Human), UniProt P01116+P62937, G13C); assay: Ras-Raf (BRAF RBD) disruption / FRET / MOA assay, KRAS G13C; assay type: biochemical; conditions: KRAS G13C; Ras-Raf disruption/FRET/MOA assay; read-out: IC50* KRAS G13C FRET data
Summary of the method: (§1)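 Ternary complex formation (Ras–compound–cyclophilin A) displacing BRAF RBD, monitored by TR-FRET. Three hours at 25° C with compound (top 30 μM final), then 1.5 h with the labelled antibodies. Lower ratio than DMSO indicates disruption; IC50 reported.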

[3] = biological target: KRAS Q61H (Homo sapiens (Human), UniProt P01116+P62937, Q61H); assay: Ras-Raf (BRAF RBD) disruption / FRET / MOA assay, KRAS Q61H; assay type: biochemical; conditions: Ras-Raf disruption/FRET/MOA assay; class symbols; read-out: KRAS Q61H FRET data IC50
Summary of the method: (§2)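 Compounds were tested as a 10-point 3-fold dilution series from 30 μM final for their ability to drive ternary complex formation between nucleotide-loaded Ras and cyclophilin A, displacing the BRAF RBD. After 3 h at 25° C., anti-His Eu-W1024 (10 nM) and anti-GST allophycocyanin (50 nM) were added for 1.5 h. A TR-FRET ratio decrease versus DMSO gave IC50.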

[4] = biological target: NRAS G12C (Homo sapiens (Human), UniProt P01111+P62937, G12C); assay: Ras-Raf (BRAF RBD) disruption / FRET / MOA assay, NRAS G12C; assay type: biochemical; conditions: read-out: IC50* NRAS G12C FRET data
Summary of the method: as §1

[5] = biological target: NRAS Q61R (Homo sapiens (Human), UniProt P01111+P62937, Q61R); assay: Ras-Raf (BRAF RBD) disruption / FRET / MOA assay, NRAS Q61R; assay type: biochemical; conditions: NRAS Q61R; Ras-Raf disruption/FRET/MOA assay; read-out: IC50* NRAS Q61R FRET data
Summary of the method: as §2

[6] = biological target: NRAS WT (Homo sapiens (Human), UniProt P01111+P62937); assay: Ras-Raf (BRAF RBD) disruption / FRET / MOA assay, NRAS WT; assay type: biochemical; conditions: read-out: IC50* NRAS WT FRET data
Summary of the method: as §2

NRAS WT, sequence (P01111 whole entry): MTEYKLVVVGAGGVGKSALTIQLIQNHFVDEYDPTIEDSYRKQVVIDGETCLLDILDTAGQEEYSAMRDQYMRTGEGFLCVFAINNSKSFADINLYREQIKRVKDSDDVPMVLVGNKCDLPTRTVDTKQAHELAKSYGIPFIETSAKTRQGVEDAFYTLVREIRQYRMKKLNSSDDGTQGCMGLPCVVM
NRAS WT, sequence (P62937 whole entry): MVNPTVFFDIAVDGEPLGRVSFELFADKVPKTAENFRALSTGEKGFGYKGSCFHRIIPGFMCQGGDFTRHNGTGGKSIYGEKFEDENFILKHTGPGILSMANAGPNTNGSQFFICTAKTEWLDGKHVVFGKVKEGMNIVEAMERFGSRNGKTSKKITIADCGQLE
NRAS Q61R, sequence (P01111 whole entry Q61R): as the sequence (P01111 whole entry) above, with Q61R counted along it
NRAS Q61R, sequence (P62937 whole entry): as the sequence (P62937 whole entry) above
K-Ras G13C, sequence (P01116-2 other isoform, or with tags, fused parts or gaps G13C): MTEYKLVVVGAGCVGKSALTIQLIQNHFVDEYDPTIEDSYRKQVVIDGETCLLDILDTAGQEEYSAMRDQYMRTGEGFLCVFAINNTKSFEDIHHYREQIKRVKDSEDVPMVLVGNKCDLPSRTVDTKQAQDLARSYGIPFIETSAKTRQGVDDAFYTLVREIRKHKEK
K-Ras G13C, sequence (P62937 whole entry): as the sequence (P62937 whole entry) above
KRAS Q61H, sequence (P01116-2 other isoform, or with tags, fused parts or gaps Q61H): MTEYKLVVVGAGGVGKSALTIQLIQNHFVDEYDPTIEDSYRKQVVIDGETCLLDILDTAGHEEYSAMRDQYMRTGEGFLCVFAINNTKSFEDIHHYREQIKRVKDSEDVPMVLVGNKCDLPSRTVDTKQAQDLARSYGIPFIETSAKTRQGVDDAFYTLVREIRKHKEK
KRAS Q61H, sequence (P62937 whole entry): as the sequence (P62937 whole entry) above
NRAS G12C, sequence (P01111 whole entry G12C): as the sequence (P01111 whole entry) above, with G12C counted along it
NRAS G12C, sequence (P62937 whole entry): as the sequence (P62937 whole entry) above

| Structure (SMILES) | EC50 [1] | IC50 [2] | IC50 [3] | IC50 [4] | IC50 [5] | IC50 [6] |
| --- | --- | --- | --- | --- | --- | --- |
| C=CC(=O)N1CCO[C@H]2CN(C(=O)N(C)[C@H](C(=O)N[C@H]3Cc4cccc(n4)-c4ccc5c(c4)c(c(-c4cccnc4[C@H](C)OC)n5CC(F)(F)F)CC(C)(C)COC(=O)[C@@H]4CCCN(N4)C3=O)C(C)C)C[C@H]21 (atropisomer, axis not shown) [Example A595] | < 5 µM | 10 to 100 nM | 100 to 1000 nM | 10 to 100 nM | 100 to 1000 nM | 100 to 1000 nM |
| C=CC(=O)N1CCO[C@H]2CN(C(=O)N(C)[C@H](C(=O)N[C@H]3Cc4cccc(n4)-c4ccc5c(c4)c(c(-c4cccnc4[C@H](C)OC)n5CC)CC(C)(C)COC(=O)[C@@H]4CCCN(N4)C3=O)C(C)C)C[C@H]21 (atropisomer, axis not shown) [Example A597] | < 5 µM | 10 to 100 nM | 100 to 1000 nM | 10 to 100 nM | 100 to 1000 nM | 1000 to 10000 nM |
| C=CC(=O)N1CCO[C@H]2CN(C(=O)N(C)[C@H](C(=O)N[C@H]3Cc4cccc(c4)-c4ccc5c(c4)c(c(-c4cccnc4[C@H](C)OC)n5CC)CC(C)(C)COC(=O)[C@@H]4CCCN(N4)C3=O)C(C)C)C[C@H]21 (atropisomer, axis not shown) [Example A610] | < 5 µM | 10 to 100 nM | 100 to 1000 nM | 10 to 100 nM | 100 to 1000 nM | 100 to 1000 nM |
| C=CC(=O)N1CC2(CCN2C(=O)N(C)[C@H](C(=O)N[C@H]2Cc3nc(n(C)n3)-c3ccc4c(c3)c(c(-c3cccnc3[C@H](C)OC)n4CC)CC(C)(C)COC(=O)[C@@H]3CCCN(N3)C2=O)C(C)C)C1 (atropisomer, axis not shown) [Example A612] | < 5 µM | 100 to 1000 nM | 10 to 100 nM | < 10 nM | 10 to 100 nM | 10 to 100 nM |
| CCn1c(-c2cccnc2[C@H](C)OC)c2c3cc(ccc31)N1CCC[C@@H](C[C@H](NC(=O)[C@H](C(C)C)N(C)C(=O)C3(F)CCN(C(=O)C#CC(C)(C)N(C)C)CC3)C(=O)N3CCC[C@H](N3)C(=O)OCC(C)(C)C2)C1 (atropisomer, axis not shown) [Example A615] | < 5 µM | > 10000 nM | > 10000 nM | 10 to 100 nM | > 10000 nM | > 10000 nM |
| C=CC(=O)N(C)CCC1CCN(C(=O)N(C)[C@H](C(=O)N[C@H]2Cc3nc(cs3)-c3ccc4c(c3)c(c(-c3cccnc3[C@H](C)OC)n4CC)CC(C)(C)COC(=O)[C@@H]3CCCN(N3)C2=O)C(C)C)CC1 (atropisomer, axis not shown) [Example A621] | < 5 µM | 10 to 100 nM | < 10 nM | 10 to 100 nM | 10 to 100 nM | 10 to 100 nM |
| CCn1c(-c2cccnc2[C@H](C)OC)c2c3cc(ccc31)-c1csc(n1)C[C@H](NC(=O)[C@H](C(C)C)N(C)C(=O)N1C[C@H]3CN(C(=O)C#CC(C)(C)N(C)C)CC[C@H]31)C(=O)N1CCC[C@H](N1)C(=O)OCC(C)(C)C2 (atropisomer, axis not shown) [Example A624] | < 5 µM | 100 to 1000 nM | 100 to 1000 nM | 10 to 100 nM | 100 to 1000 nM | 100 to 1000 nM |
| CCn1c(-c2cccnc2[C@H](C)OC)c2c3cc(ccc31)-c1csc(n1)C[C@H](NC(=O)[C@H](F)COC1CN(C(=O)C#CC(C)(C)N(C)C)C1)C(=O)N1CCC[C@H](N1)C(=O)OCC(C)(C)C2 (atropisomer, axis not shown) [Example A627] | < 5 µM | > 10000 nM | 1000 to 10000 nM | < 10 nM | > 10000 nM | > 10000 nM |
| C=C(C)C(=O)N1CC2(CCN(C(=O)N(C)[C@H](C(=O)N[C@H]3Cc4nc(cs4)-c4ccc5c(c4)c(c(-c4cccnc4[C@H](C)OC)n5CC)CC(C)(C)COC(=O)[C@@H]4CCCN(N4)C3=O)C(C)C)CC2)C1 (atropisomer, axis not shown) [Example A651] | < 5 µM | 100 to 1000 nM | 10 to 100 nM | 10 to 100 nM | 100 to 1000 nM | 100 to 1000 nM |
| C=CC(=O)N(C)C[C@H]1CCN(C(=O)N(C)[C@H](C(=O)N[C@H]2Cc3nc(cs3)-c3ccc4c(c3)c(c(-c3cccnc3[C@H](C)OC)n4CC)CC(C)(C)COC(=O)[C@@H]3CCCN(N3)C2=O)C(C)C)C1 (atropisomer, axis not shown) [Example A653] | < 5 µM | 100 to 1000 nM | 10 to 100 nM | 10 to 100 nM | 100 to 1000 nM | 100 to 1000 nM |
| C=CC(=O)N(C)C[C@@H]1CCN(C(=O)N(C)[C@H](C(=O)N[C@H]2Cc3nc(cs3)-c3ccc4c(c3)c(c(-c3cccnc3[C@H](C)OC)n4CC)CC(C)(C)COC(=O)[C@@H]3CCCN(N3)C2=O)C(C)C)C1 (atropisomer, axis not shown) [Example A654] | < 5 µM | 100 to 1000 nM | 10 to 100 nM | 10 to 100 nM | 100 to 1000 nM | 100 to 1000 nM |
| CCn1c(-c2cccnc2[C@H](C)OC)c2c3cc(ccc31)-c1cccc(c1)C[C@H](NC(=O)[C@@H](COC1CN(C(=O)C#CC(C)(C)N(C)CCO)C1)C(C)C)C(=O)N1CCC[C@H](N1)C(=O)OCC(C)(C)C2 (atropisomer, axis not shown) [Example A657] | < 5 µM | 1000 to 10000 nM | > 10000 nM | 10 to 100 nM | > 10000 nM | > 10000 nM |
| CCn1c(-c2cccnc2[C@H](C)OC)c2c3cc(ccc31)-c1csc(n1)C[C@H](NC(=O)[C@@H](COC1CN(C(=O)C#CC(C)(C)N(C)C)C1)OC)C(=O)N1CCC[C@H](N1)C(=O)OCC(C)(C)C2 (atropisomer, axis not shown) [Example A660] | < 5 µM | 100 to 1000 nM | 100 to 1000 nM | < 10 nM | 1000 to 10000 nM | 100 to 1000 nM |
| C=CC(=O)N1CC[C@@]2(CCN2C(=O)N(C)[C@H](C(=O)N[C@H]2Cc3nc(cs3)-c3ccc4c(c3)c(c(-c3cccnc3[C@H](C)OC)n4CC)CC(C)(C)COC(=O)[C@@H]3CCCN(N3)C2=O)C(C)C)C1 (atropisomer, axis not shown) [Example A661] | < 5 µM | 100 to 1000 nM | 10 to 100 nM | 10 to 100 nM | 100 to 1000 nM | 100 to 1000 nM |
| CCn1c(-c2cccnc2[C@H](C)OC)c2c3cc(ccc31)C1=CCCN(C1)C[C@H](NC(=O)[C@@H](COC1CN(C(=O)C#CC(C)(C)N(C)C)C1)C(C)C)C(=O)N1CCC[C@H](N1)C(=O)OCC(C)(C)C2 (atropisomer, axis not shown) [Example A663, (2R)-2-(((1-(4-(dimethylamino)-4-methylpent-2-ynoyl)405yridine405-3-yl)oxy)methyl)-N-((6^3S,4S)-1^1-ethyl-1^2-(2-((S)-1-methoxyethyl)405yridine-3-yl)-10,10-dimethyl-5,7-dioxo-2^1,2^2,2^3,2^6,6^1,6^2,6^3,6^4,6^5,6^6-decahydro-1^1H-8-oxa-1(5,3)-indola-6(1,3)-pyridazina-2(5,1)-pyridinacycloundecaphane-4-yl)-3-methylbutanamide] | < 5 µM | 1000 to 10000 nM | > 10000 nM | < 10 nM | > 10000 nM | > 10000 nM |
| CCn1c(-c2cccnc2[C@H](C)OC)c2c3cc(ccc31)-c1csc(n1)C[C@H](NC(=O)[C@H](C(C)C)N(C)C(=O)N1CCN(C(=O)/C=C/CN3CCOCC3)C3(CC3)C1)C(=O)N1CCC[C@H](N1)C(=O)OCC(C)(C)C2 (atropisomer, axis not shown) [Example A665] | < 5 µM | 100 to 1000 nM | 10 to 100 nM | 10 to 100 nM | 10 to 100 nM | 10 to 100 nM |
| CCn1c(-c2cccnc2[C@H](C)OC)c2c3cc(ccc31)-c1csc(n1)C[C@H](NC(=O)[C@H](C(C)C)N(C)C(=O)N1CCC3(CC1)CN(C(=O)/C=C/CN1CCOCC1)C3)C(=O)N1CCC[C@H](N1)C(=O)OCC(C)(C)C2 (atropisomer, axis not shown) [Example A669] | < 5 µM | 100 to 1000 nM | 10 to 100 nM | 10 to 100 nM | 10 to 100 nM | 10 to 100 nM |
| CCn1c(-c2cccnc2[C@H](C)OC)c2c3cc(ccc31)-c1csc(n1)C[C@H](NC(=O)[C@H](C(C)C)N(C)C(=O)N1CCC3(CC1)CN(C(=O)/C=C/CN1CCCCC1)C3)C(=O)N1CCC[C@H](N1)C(=O)OCC(C)(C)C2 (atropisomer, axis not shown) [Example A670] | < 5 µM | 100 to 1000 nM | 100 to 1000 nM | 100 to 1000 nM | 100 to 1000 nM | 100 to 1000 nM |
| C/C=C/C(=O)N1CC2(CCN(C(=O)N(C)[C@H](C(=O)N[C@H]3Cc4nc(cs4)-c4ccc5c(c4)c(c(-c4cccnc4[C@H](C)OC)n5CC)CC(C)(C)COC(=O)[C@@H]4CCCN(N4)C3=O)C(C)C)CC2)C1 (atropisomer, axis not shown) [Example A671] | < 5 µM | 100 to 1000 nM | 10 to 100 nM | 10 to 100 nM | 100 to 1000 nM | 100 to 1000 nM |
